The record followed here is patent US9447081B2, “Substituted pyrimidines as pharmaceuticals and insecticides” (SHENYANG SINOCHEM AGROCHEMICALS R&D CO., LTD., priority 2012, dated 2016).

One assay has as its system wheat powdery mildew. Kind of assay: Protectant activity in vivo (whole plant), wheat powdery mildew. The method, then: (§1) The method is as followed: The whole plant is used in this test. The compound is dissolved in a proper solvent to get mother solution. The proper solvent is selected from acetone, methanol, DMF and so on according to their dissolving capability to the sample. […] The testing solution is sprayed to the host plant by a special plant sprayer. The plant is inoculated with fungus after 24 hours. According to the infecting characteristic of fungus, the plant is stored in a humidity chamber and then transferred into greenhouse after infection is finished. And the other plants are placed in greenhouse directly. The activity of compound is obtained by eyeballing after 7 days in common.

A further assay deals with diamond back moth. Kind of assay: Insecticidal activity against diamond back moth (airbrush spray). Format: in vivo. Particulars: 600 mg/L, mortality after 72 h; for pest or weed control at 600 µg/mL: read-out: control of the second instar larvae of diamond back moth. The method, then: (§2) Compounds were dissolved in mixed solvent (acetone:methanol=1:1), and diluted to required concentration with water containing 0.1% of tween 80.
(§3) Diamond back moth, armyworm, Green Peach Aphid and carmine spider mite were used as targets and the method of spraying by airbrush was used for determination of insecticidal biassays.
The method of spraying by airbrush: The cabbage leaves were made into plates of 2 cm diameter by use of punch. A test solution (0.5 ml) was sprayed by airbrush at the pressure of 0.7 kg/cm^2 to both sides of every plate. 10 Second instar larvae were put into the petri-dishes after the leaf disc air-dried and 3 replicates were set for each treatment. Then the insects were maintained in observation room (25° C., 60˜70% R.H.). Scores were conducted and mortalities were calculated after 72 h.

For the next assay, the system named is carmine spider mite. Put plainly: Acaricidal activity against carmine spider mite (airbrush spray). Format: in vivo. As to conditions: 100 mg/L, adults, mortality after 72 hrs; for pest or weed control at 100 µg/mL: Tetranychus cinnabarinus. The method, then: as §2, §3
Method: Broadbean shoots with two true leaves in pot were taken, the healthy adults of carmine spider mite were inoculated to the leaves. The adults were counted and then sprayed with airbrush at the pressure of 0.7 kg/cm^2 and at dose of 0.5 ml. 3 replicates were set for each treatment. And then they were maintained in standard observation room. Scores were conducted and mortalities were calculated after 72 hrs.

In assay [1] the test system is Green peach aphids (Myzus Persicae Sulzer). Kind of assay: Activity against green peach aphid (airbrush foliar spray). Format: in vivo. Particulars: death rate after 48 h; for pest or weed control at 600 µg/mL / pest or weed control at 10 µg/mL / pest or weed control at 100 µg/mL: Myzus persicae, foliar, 48 h; for pest or weed control at 600 µg/mL / pest or weed control at 100 µg/mL: read-out: Insecticidal activity against peach aphid (control); for pest or weed control at 10 µg/mL: read-out: Insecticidal activity against peach aphid. The method, then:
as §2, §3
Method: Filter papers were put in culture dishes (Diameter=6 cm), and water was dripped on filter papers for preserving moisture. Green peach aphids (Myzus Persicae Sulzer) were maintained on cabbage. Leaves (Diameter=3 cm) of approximately 15-30 aphids were put in the culture dishes. Bioactivity tests were used the method of Airbrush Foliar Spray, pressure=10 psi (0.7 kg/cm2), spray volume=0.5 mL. The studies were conducted at three constant temperatures 25±1 C. in incubator cabinets with 60±5% RH. Survey the survival aphids after 48 h and calculate the death rates.

A further assay relates to armyworm. Put plainly: Insecticidal activity against armyworm (airbrush spray). Format: in vivo. As to conditions: 600 mg/L, second instar larvae, mortality after 72 h. The method, then:
as §2, §3
The method of spraying by airbrush: The corn leaves were made into plates of 2 cm diameter by use of punch. A test solution (0.5 ml) was sprayed by airbrush at the pressure of 0.7 kg/cm^2 to both sides of every plate. 10 Second instar larvae were put into the petri-dishes after the leaf disc air-dried and 3 replicates were set for each treatment. Then the insects were maintained in observation room (25° C., 60˜70% R.H.). Scores were conducted and mortalities were calculated after 72 h.

In another assay the test system is corn rust. Kind of assay: Protectant activity in vivo (whole plant), corn rust. Particulars: for pest or weed control at 400 µg/mL / pest or weed control at 100 µg/mL / pest or weed control at 25 µg/mL: Zea mays, 168 h, read-out: protectant activity against corn rust. The method, then:
as §1

The test system of the next assay is cucumber gray mold. Kind of assay: Fungicidal activity in vitro (96-well, High Through Put), cucumber gray mold. Format: cell-based. As to conditions: 25 mg/L, 24 hours, read-out: inhibition rate against cucumber gray mold.
The next assay deals with cucumber downy mildew. Kind of assay: Protectant activity in vivo (whole plant), cucumber downy mildew. The method, then: as §1
The next assay has as its system rice blast. Kind of assay: microbe, parasite or virus in culture. Format: cell-based. As to conditions: for inhibition rate against rice blast: in vitro, 24 hours.
Where [2] appears, read: Triticum aestivum, 168 h, 400 mg/L, read-out: protectant activity against wheat powdery mildew.
Where [3] appears, read: Cucumis sativus, 168 h, 400 mg/L, read-out: protectant activity against cucumber downy mildew.
Where [4] appears, read: Pyricularia oryzae, 24 h, read-out: inhibition rate against rice blast.
[5] abbreviates: Triticum aestivum, 168 h, 25 mg/L, read-out: protectant activity against wheat powdery mildew.
The mark [6] stands for this setting: Triticum aestivum, 168 h, 100 mg/L, read-out: protectant activity against wheat powdery mildew.
Setting [7] is: Cucumis sativus, 168 h, 100 mg/L, read-out: protectant activity against cucumber downy mildew.

As to `c1ccc2c(NCCc3ccc4c(c3)OCO4)ncnc2c1` [ACTA-1], the pest or weed control at 400 µg/mL with wheat powdery mildew (setting [2]) and in the assay on corn rust (400 mg/L) was 0% throughout. The pest or weed control at 600 µg/mL in the assay with diamond back moth came out at 40%; in assay [1] (600 mg/L) it was 0%; in the assay on armyworm, 40%. This compound had a pest or weed control at 100 µg/mL in the assay on carmine spider mite of 0%. Also, in the assay with cucumber gray mold, the inhibition at 25 µg/mL was found to be 50%.
As for `COc1cc(CNc2ncnc(C)c2Cl)ccc1O` [CK3], the pest or weed control at 400 µg/mL in the assay with wheat powdery mildew (setting [2]), in the assay with cucumber downy mildew (setting [3]) and in the assay on corn rust (400 mg/L) was 0% in each case. Further, the pest or weed control at 600 µg/mL (in the assay on diamond back moth; in [1] (600 mg/L); in the assay with armyworm) was 0% throughout. In addition, the pest or weed control at 100 µg/mL with carmine spider mite was found to be 0%. Moreover, in the assay on cucumber gray mold, the inhibition at 25 µg/mL came to 0%.
With `Cc1ncnc(NCCc2ccc(O)cc2)c1Cl` [CK4], the pest or weed control at 400 µg/mL in the assay on wheat powdery mildew (setting [2]), in the assay on cucumber downy mildew (setting [3]) and in the assay on corn rust (400 mg/L) was 0% throughout. For the same compound, the pest or weed control at 600 µg/mL (in the assay on diamond back moth; in assay [1] (600 mg/L); in the assay on armyworm) was 0% throughout. In the assay on carmine spider mite, this compound had a pest or weed control at 100 µg/mL of 0%. For the same compound, the inhibition at 25 µg/mL in the assay with rice blast (setting [4]) and in the assay with cucumber gray mold was 0% in each case.
Consider `COc1ccc(CCNc2ncnc(C(F)(F)F)c2Cl)cc1OC` [CK7], for which the pest or weed control at 25 µg/mL in the assay on wheat powdery mildew (setting [5]) amounted to 0%. Moreover, the pest or weed control at 100 µg/mL in the assay on wheat powdery mildew (setting [6]) is 30%; in [1] (100 mg/L), 37%; with corn rust (100 mg/L), 0%. The figures for the pest or weed control at 400 µg/mL in the assay with wheat powdery mildew (setting [2]) and with corn rust (400 mg/L) were 80% and 70%, respectively. Moreover, the inhibition at 25 µg/mL in the assay on rice blast (setting [4]) and with cucumber gray mold was 0% each time. In addition, in [1] (10 mg/L), the pest or weed control at 10 µg/mL turned out to be 0%. Moreover, the pest or weed control at 600 µg/mL in assay [1] (600 mg/L) is 66%; in the assay with armyworm, 0%.
On to `COc1ccc(CCNc2ncnc(C)c2Cl)cc1OC` [CK8], for which the pest or weed control at 6.25 µg/mL in the assay on wheat powdery mildew (Triticum aestivum, 168 h, 6.25 mg/L, read-out: protectant activity against wheat powdery mildew) stood at 0%. Also, the pest or weed control at 25 µg/mL in the assay with wheat powdery mildew (setting [5]) was determined as 10%; in the assay on cucumber downy mildew (Cucumis sativus, 168 h, 25 mg/L, read-out: protectant activity against cucumber downy mildew), 0%. The pest or weed control at 100 µg/mL was determined as 80% with wheat powdery mildew (setting [6]), 45% in the assay on cucumber downy mildew (setting [7]) and 0% in the assay on corn rust (100 mg/L). The pest or weed control at 400 µg/mL with wheat powdery mildew (setting [2]) stood at 100%; in the assay with cucumber downy mildew (setting [3]), 98%; in the assay on corn rust (400 mg/L) it was 100%. The pest or weed control at 600 µg/mL (with diamond back moth; in [1] (600 mg/L); in the assay with armyworm) was 0% in each case. In addition, in the assay on cucumber downy mildew (Cucumis sativus, 168 h, 50 mg/L, read-out: protectant activity against cucumber downy mildew), the pest or weed control at 50 µg/mL turned out to be 20%. In addition, the inhibition at 25 µg/mL with rice blast (setting [4]) is 50%; with cucumber gray mold, 0%.
Regarding `Cc1c(Cl)c(NCCc2ccc3c(c2)OCO3)nc[n+]1CC(=O)c1ccc(Cl)cc1` [CK10], the pest or weed control at 400 µg/mL in the assay with wheat powdery mildew (setting [2]), with cucumber downy mildew (setting [3]) and in the assay with corn rust (400 mg/L) was 0% each time. Besides, the pest or weed control at 600 µg/mL (in the assay on diamond back moth; in assay [1] (600 mg/L); in the assay with armyworm) was 0% each time. This compound also returned a pest or weed control at 100 µg/mL with carmine spider mite of 0%. For the same compound, the inhibition at 25 µg/mL in the assay on rice blast (setting [4]) and in the assay on cucumber gray mold was 0% each time.
Take `ClCc1ncnc(NCCc2ccc3c(c2)OCO3)c1Cl` [CK11]: the pest or weed control at 400 µg/mL in the assay with wheat powdery mildew (setting [2]) worked out at 0%; in the assay on cucumber downy mildew (setting [3]) it was 30%; in the assay on corn rust (400 mg/L), 85%. In addition, the pest or weed control at 600 µg/mL was 0% in the assay on diamond back moth, 88% in assay [1] (600 mg/L) and 0% with armyworm. Further, the pest or weed control at 100 µg/mL in the assay on cucumber downy mildew (setting [7]) amounted to 0%; with carmine spider mite it was 25%; in assay [1] (100 mg/L), 0%; in the assay with corn rust (100 mg/L), 35%. In assay [1] (10 mg/L), the pest or weed control at 10 µg/mL stood at 0%. In the assay with corn rust (25 mg/L), the pest or weed control at 25 µg/mL was 0%. Further, the inhibition at 25 µg/mL with cucumber gray mold is 50%.
As for `FC(F)c1ncnc(NCCc2ccc3c(c2)OCO3)c1Cl` [Compound 18], the “protectant activity against wheat powdery mildew” value in the assay on wheat powdery mildew (6.25 mg/L), with wheat powdery mildew (25 mg/L), with wheat powdery mildew (100 mg/L) and in the assay with wheat powdery mildew (400 mg/L) was 100% throughout. For the same compound, the “control of the second instar larvae of diamond back moth” value in the assay on diamond back moth amounted to 100%. The “protectant activity against cucumber downy mildew” value with cucumber downy mildew (12.5 mg/L) worked out at 80%; in the assay on cucumber downy mildew (25 mg/L), 100%; with cucumber downy mildew (50 mg/L), 100%; in the assay on cucumber downy mildew (100 mg/L), 100%; in the assay on cucumber downy mildew (400 mg/L), 100%. Further, the “control against carmine spider mite” value in the assay on carmine spider mite is on record as 90%. Also, the “inhibition rate against rice blast” value with rice blast (0.9 mg/L) was determined as 80%; with rice blast (2.8 mg/L), 80%; in the assay with rice blast (8.3 mg/L), 100%; in the assay with rice blast (25 mg/L) it was 100%. For the same compound, the “Insecticidal activity against peach aphid” value in [1] (10 mg/L) is reported as 68%. Besides, the “Insecticidal activity against peach aphid (control)” value in assay [1] (100 mg/L) and in assay [1] (600 mg/L) was 100% each time. The “control of the armyworm” value with armyworm is 100%. For the same compound, the results for the “protectant activity against corn rust” value in the assay with corn rust (25 mg/L), in the assay with corn rust (100 mg/L) and in the assay on corn rust (400 mg/L) were 98%, 100% and 100%, respectively.
With `Cc1ncnc(NC(C)c2ccc3c(c2)OC(F)(F)O3)c1Cl` (centres unmarked) [PC-1], the pest or weed control at 25 µg/mL in the assay with wheat powdery mildew (setting [5]) and in the assay with corn rust (25 mg/L) was 0% throughout. Further, the pest or weed control at 100 µg/mL in the assay on wheat powdery mildew (setting [6]) was found to be 80%; in the assay on carmine spider mite it was 51%; in assay [1] (100 mg/L), 0%; in the assay on corn rust (100 mg/L), 20%. The pest or weed control at 400 µg/mL in the assay on wheat powdery mildew (setting [2]) came out at 100%; in the assay with corn rust (400 mg/L), 70%. For the same compound, the pest or weed control at 600 µg/mL with diamond back moth is 0%; in assay [1] (600 mg/L) it was 52%; in the assay on armyworm, 0%. Besides, the inhibition at 8.3 µg/mL in the assay with rice blast (setting [4]) was found to be 0%. In addition, the inhibition at 25 µg/mL in the assay with cucumber gray mold amounted to 50%.
